Laboratory results reported in ChEMBL document CHEMBL1201862, “PubChem BioAssay data set” (2004).
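Five compound concentrations were applied to cells in 96-well plates for 48 hours; endpoints were derived by simple linear interpolation of the resulting dose-response curve. Abbreviation: GI50, concentration required for 50% inhibition of growth.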 The source made the active and inactive calls. No stated cut-off is given here; in the data, active = GI50 up to about 1.1 µM and inactive = higher.

Experiments:
Assay in all cases: DTP human tumour cell line panel, 48 h
CAKI-1 = tested on: CAKI-1
SW-620 = tested on: SW-620
HOP-92 = tested on: HOP-92
RXF 631 = tested on: RXF 631
NCI-H522 = tested on: NCI-H522
SNB-78 = tested on: SNB-78
HCT-116 = tested on: HCT-116
OVCAR-3 = tested on: OVCAR-3
XF498 = tested on: XF498
IGROV-1 = tested on: IGROV-1
UACC-257 = tested on: UACC-257
SNB-19 = tested on: SNB-19
NCI-H23 = tested on: NCI-H23
NCI-H226 = tested on: NCI-H226
NCI-H460 = tested on: NCI-H460
SK-MEL-2 = tested on: SK-MEL-2
OVCAR-8 = tested on: OVCAR-8
A549 = tested on: A549
DMS-273 = tested on: DMS-273
OVCAR-5 = tested on: OVCAR-5
SN12C = tested on: SN12C
OVCAR-4 = tested on: OVCAR-4
KM12 = tested on: KM12
RXF 393 = tested on: RXF 393
LOX IMVI = tested on: LOX IMVI
TK-10 = tested on: TK-10
HOP-62 = tested on: HOP-62
HT-29 = tested on: HT-29
786-0 = tested on: 786-0
KM-20L2 = tested on: KM-20L2
HL-60 = tested on: HL-60
CCRF-CEM = tested on: CCRF-CEM
MOLT-4 = tested on: MOLT-4
U-251 = tested on: U-251
ACHN = tested on: ACHN
EKVX = tested on: EKVX
M19-MEL = tested on: M19-MEL
HCC 2998 = tested on: HCC 2998
SF-295 = tested on: SF-295
SR = tested on: SR
Malme-3M = tested on: Malme-3M
SF-268 = tested on: SF-268
SK-MEL-28 = tested on: SK-MEL-28
A498 = tested on: A498
K562 = tested on: K562
SF-539 = tested on: SF-539
COLO 205 = tested on: COLO 205
HOP-18 = tested on: HOP-18
SK-OV-3 = tested on: SK-OV-3
RPMI-8226 = tested on: RPMI-8226
M14 = tested on: M14
HCT-15 = tested on: HCT-15
DMS-114 = tested on: DMS-114
DLD-1 = tested on: DLD-1
LXFL 529 = tested on: LXFL 529
UO-31 = tested on: UO-31
SNB-75 = tested on: SNB-75
SK-MEL-5 = tested on: SK-MEL-5
UACC-62 = tested on: UACC-62

COC(=O)c1c[nH]cc1CCCCc1c[nH]cc1C(=O)OC
GI50 (CAKI-1): > 100 µM (inactive) | GI50 (SW-620): > 100 µM (inactive) | GI50 (HOP-92): 58.6 µM (inactive) | GI50 (RXF 631): > 100 µM (inactive) | GI50 (NCI-H522): > 100 µM (inactive) | GI50 (SNB-78): > 100 µM (inactive) | GI50 (HCT-116): > 100 µM (inactive) | GI50 (OVCAR-3): > 100 µM (inactive) | GI50 (XF498): 50 µM (inactive) | GI50 (IGROV-1): > 100 µM (inactive) | GI50 (UACC-257): > 100 µM (inactive) | GI50 (SNB-19): > 100 µM (inactive) | GI50 (NCI-H23): > 100 µM (inactive) | GI50 (NCI-H226): > 100 µM (inactive) | GI50 (NCI-H460): > 100 µM (inactive) | GI50 (SK-MEL-2): > 100 µM (inactive) | GI50 (OVCAR-8): > 100 µM (inactive) | GI50 (A549): > 100 µM (inactive) | GI50 (DMS-273): > 100 µM (inactive) | GI50 (OVCAR-5): > 100 µM (inactive) | GI50 (SN12C): > 100 µM (inactive) | GI50 (OVCAR-4): > 100 µM (inactive) | GI50 (KM12): > 100 µM (inactive) | GI50 (RXF 393): > 100 µM (inactive) | GI50 (LOX IMVI): > 100 µM (inactive) | GI50 (TK-10): > 100 µM (inactive) | GI50 (HOP-62): > 100 µM (inactive) | GI50 (HT-29): > 100 µM (inactive) | GI50 (786-0): 89.1 µM (inactive) | GI50 (KM-20L2): > 100 µM (inactive) | GI50 (HL-60): 73.3 µM (inactive) | GI50 (CCRF-CEM): > 100 µM (inactive) | GI50 (MOLT-4): > 100 µM (inactive) | GI50 (U-251): > 100 µM (inactive) | GI50 (ACHN): > 100 µM (inactive) | GI50 (EKVX): > 100 µM (inactive) | GI50 (M19-MEL): > 100 µM (inactive) | GI50 (HCC 2998): > 100 µM (inactive) | GI50 (SF-295): 73.3 µM (inactive) | GI50 (SR): > 100 µM (inactive) | GI50 (Malme-3M): > 100 µM (inactive) | GI50 (SF-268): > 100 µM (inactive) | GI50 (SK-MEL-28): > 100 µM (inactive) | GI50 (A498): > 100 µM (inactive) | GI50 (K562): > 100 µM (inactive) | GI50 (SF-539): > 100 µM (inactive) | GI50 (COLO 205): > 100 µM (inactive) | GI50 (HOP-18): > 100 µM (inactive) | GI50 (SK-OV-3): > 100 µM (inactive)

CCOC(=O)/C(=C\c1ccc[nH]1)C(=O)c1ccccc1
GI50 (CAKI-1): > 100 µM (inactive) | GI50 (SW-620): 52.7 µM (inactive) | GI50 (HOP-92): 22.6 µM (inactive) | GI50 (RXF 631): > 100 µM (inactive) | GI50 (NCI-H522): > 100 µM (inactive) | GI50 (RPMI-8226): 82 µM (inactive) | GI50 (SNB-78): > 100 µM (inactive) | GI50 (HCT-116): > 100 µM (inactive) | GI50 (M14): > 100 µM (inactive) | GI50 (OVCAR-3): > 100 µM (inactive) | GI50 (XF498): > 100 µM (inactive) | GI50 (UACC-257): > 100 µM (inactive) | GI50 (SNB-19): > 100 µM (inactive) | GI50 (NCI-H23): > 100 µM (inactive) | GI50 (NCI-H226): > 100 µM (inactive) | GI50 (HCT-15): > 100 µM | GI50 (DMS-114): 34.3 µM (inactive) | GI50 (NCI-H460): > 100 µM (inactive) | GI50 (DLD-1): > 100 µM (inactive) | GI50 (SK-MEL-2): 89.9 µM (inactive) | GI50 (OVCAR-8): > 100 µM (inactive) | GI50 (A549): > 100 µM (inactive) | GI50 (DMS-273): 26.2 µM (inactive) | GI50 (OVCAR-5): > 100 µM (inactive) | GI50 (SN12C): > 100 µM (inactive) | GI50 (LXFL 529): > 100 µM (inactive) | GI50 (OVCAR-4): > 100 µM (inactive) | GI50 (KM12): 65.9 µM (inactive) | GI50 (RXF 393): 38.2 µM (inactive) | GI50 (LOX IMVI): 91.2 µM (inactive) | GI50 (TK-10): > 100 µM (inactive) | GI50 (HOP-62): > 100 µM (inactive) | GI50 (HT-29): > 100 µM (inactive) | GI50 (UO-31): > 100 µM (inactive) | GI50 (786-0): > 100 µM (inactive) | GI50 (KM-20L2): > 100 µM (inactive) | GI50 (HL-60): 23.3 µM (inactive) | GI50 (CCRF-CEM): 58.3 µM (inactive) | GI50 (MOLT-4): 43.3 µM (inactive) | GI50 (U-251): > 100 µM (inactive) | GI50 (ACHN): > 100 µM (inactive) | GI50 (EKVX): > 100 µM (inactive) | GI50 (M19-MEL): > 100 µM (inactive) | GI50 (HCC 2998): > 100 µM (inactive) | GI50 (SF-295): > 100 µM (inactive) | GI50 (SR): 25.8 µM (inactive) | GI50 (Malme-3M): > 100 µM (inactive) | GI50 (SF-268): 91 µM (inactive) | GI50 (SNB-75): 13.9 µM (inactive) | GI50 (SK-MEL-28): > 100 µM (inactive) | GI50 (SK-MEL-5): > 100 µM (inactive) | GI50 (K562): 35.2 µM (inactive) | GI50 (SF-539): > 100 µM (inactive) | GI50 (COLO 205): > 100 µM (inactive) | GI50 (HOP-18): 78.9 µM (inactive) | GI50 (SK-OV-3): > 100 µM (inactive) | GI50 (UACC-62): 67.6 µM (inactive)

Nc1ccc(N)c2c1C(=O)c1ccccc1C2=O
GI50 (CAKI-1): 4.57 µM (inactive) | GI50 (SW-620): 32.7 µM (inactive) | GI50 (HOP-92): 36.2 µM (inactive) | GI50 (RXF 631): 20.4 µM (inactive) | GI50 (NCI-H522): 9.48 µM (inactive) | GI50 (RPMI-8226): 9.16 µM (inactive) | GI50 (SNB-78): > 100 µM (inactive) | GI50 (HCT-116): 11.1 µM (inactive) | GI50 (M14): 17.7 µM (inactive) | GI50 (OVCAR-3): 43.9 µM (inactive) | GI50 (XF498): > 100 µM (inactive) | GI50 (IGROV-1): 6.44 µM (inactive) | GI50 (UACC-257): > 100 µM (inactive) | GI50 (SNB-19): > 100 µM (inactive) | GI50 (NCI-H23): 17.7 µM (inactive) | GI50 (NCI-H226): > 100 µM (inactive) | GI50 (HCT-15): 4.41 µM | GI50 (DMS-114): 32.7 µM (inactive) | GI50 (NCI-H460): 9.51 µM (inactive) | GI50 (DLD-1): 5.83 µM (inactive) | GI50 (SK-MEL-2): 79.1 µM (inactive) | GI50 (OVCAR-8): 76.2 µM (inactive) | GI50 (A549): 24.4 µM (inactive) | GI50 (DMS-273): 16 µM (inactive) | GI50 (OVCAR-5): > 100 µM (inactive) | GI50 (SN12C): 13.2 µM (inactive) | GI50 (LXFL 529): 31.1 µM (inactive) | GI50 (OVCAR-4): > 100 µM (inactive) | GI50 (KM12): 4.54 µM (inactive) | GI50 (LOX IMVI): 9.02 µM (inactive) | GI50 (TK-10): 4.08 µM (inactive) | GI50 (HOP-62): 5.01 µM (inactive) | GI50 (HT-29): 57.9 µM (inactive) | GI50 (UO-31): 12.4 µM (inactive) | GI50 (786-0): 78.7 µM (inactive) | GI50 (KM-20L2): 14.4 µM (inactive) | GI50 (CCRF-CEM): 32.1 µM (inactive) | GI50 (MOLT-4): 13.4 µM (inactive) | GI50 (U-251): 17.3 µM (inactive) | GI50 (ACHN): 4.66 µM (inactive) | GI50 (EKVX): 87.5 µM (inactive) | GI50 (M19-MEL): 95.5 µM (inactive) | GI50 (HCC 2998): 3.97 µM (inactive) | GI50 (Malme-3M): 24 µM (inactive) | GI50 (SF-268): 51.3 µM (inactive) | GI50 (SNB-75): > 100 µM (inactive) | GI50 (SK-MEL-28): > 100 µM (inactive) | GI50 (SK-MEL-5): 15.8 µM (inactive) | GI50 (A498): 7.35 µM (inactive) | GI50 (K562): 27.6 µM (inactive) | GI50 (SF-539): 34.4 µM (inactive) | GI50 (COLO 205): 17.8 µM (inactive) | GI50 (HOP-18): 22 µM (inactive) | GI50 (SK-OV-3): 2.49 µM (inactive) | GI50 (UACC-62): 15.7 µM (inactive)
